According to patent US9586951B2 (FUJIFILM Corporation, priority 2013, dated 2017):

Target: T1, ATM (Homo sapiens, UniProt Q13315)
T1 construct: detecting phosphorylation of Chk2 in a human non-small cell lung cancer cell line NCI-H460 (ATCC company); host or cells: NCI-H460 human non-small cell lung cancer cells
Experiment: ATM inhibition test (phosphorylation of Chk2 generated by ionizing radiation, AlphaScreen SureFire)
Type: cell-based
Settings: phosphorylated Chk2 in NCI-H460 cells, ionizing radiation 8Gy, 1 hour after test compound treatment; read-out: ATM inhibitory activity
Outline: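 NCI-H460 cells, compound 1 h pre-treatment, 8Gy IR, further 1 h at 37° C in 5% CO2. Read-out: phospho-Chk2 via AlphaScreen SureFire. % inhibition relative to IR-induced signal window (irradiated vs non-irradiated drug-free wells).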

T1 sequence (Q13315 whole entry): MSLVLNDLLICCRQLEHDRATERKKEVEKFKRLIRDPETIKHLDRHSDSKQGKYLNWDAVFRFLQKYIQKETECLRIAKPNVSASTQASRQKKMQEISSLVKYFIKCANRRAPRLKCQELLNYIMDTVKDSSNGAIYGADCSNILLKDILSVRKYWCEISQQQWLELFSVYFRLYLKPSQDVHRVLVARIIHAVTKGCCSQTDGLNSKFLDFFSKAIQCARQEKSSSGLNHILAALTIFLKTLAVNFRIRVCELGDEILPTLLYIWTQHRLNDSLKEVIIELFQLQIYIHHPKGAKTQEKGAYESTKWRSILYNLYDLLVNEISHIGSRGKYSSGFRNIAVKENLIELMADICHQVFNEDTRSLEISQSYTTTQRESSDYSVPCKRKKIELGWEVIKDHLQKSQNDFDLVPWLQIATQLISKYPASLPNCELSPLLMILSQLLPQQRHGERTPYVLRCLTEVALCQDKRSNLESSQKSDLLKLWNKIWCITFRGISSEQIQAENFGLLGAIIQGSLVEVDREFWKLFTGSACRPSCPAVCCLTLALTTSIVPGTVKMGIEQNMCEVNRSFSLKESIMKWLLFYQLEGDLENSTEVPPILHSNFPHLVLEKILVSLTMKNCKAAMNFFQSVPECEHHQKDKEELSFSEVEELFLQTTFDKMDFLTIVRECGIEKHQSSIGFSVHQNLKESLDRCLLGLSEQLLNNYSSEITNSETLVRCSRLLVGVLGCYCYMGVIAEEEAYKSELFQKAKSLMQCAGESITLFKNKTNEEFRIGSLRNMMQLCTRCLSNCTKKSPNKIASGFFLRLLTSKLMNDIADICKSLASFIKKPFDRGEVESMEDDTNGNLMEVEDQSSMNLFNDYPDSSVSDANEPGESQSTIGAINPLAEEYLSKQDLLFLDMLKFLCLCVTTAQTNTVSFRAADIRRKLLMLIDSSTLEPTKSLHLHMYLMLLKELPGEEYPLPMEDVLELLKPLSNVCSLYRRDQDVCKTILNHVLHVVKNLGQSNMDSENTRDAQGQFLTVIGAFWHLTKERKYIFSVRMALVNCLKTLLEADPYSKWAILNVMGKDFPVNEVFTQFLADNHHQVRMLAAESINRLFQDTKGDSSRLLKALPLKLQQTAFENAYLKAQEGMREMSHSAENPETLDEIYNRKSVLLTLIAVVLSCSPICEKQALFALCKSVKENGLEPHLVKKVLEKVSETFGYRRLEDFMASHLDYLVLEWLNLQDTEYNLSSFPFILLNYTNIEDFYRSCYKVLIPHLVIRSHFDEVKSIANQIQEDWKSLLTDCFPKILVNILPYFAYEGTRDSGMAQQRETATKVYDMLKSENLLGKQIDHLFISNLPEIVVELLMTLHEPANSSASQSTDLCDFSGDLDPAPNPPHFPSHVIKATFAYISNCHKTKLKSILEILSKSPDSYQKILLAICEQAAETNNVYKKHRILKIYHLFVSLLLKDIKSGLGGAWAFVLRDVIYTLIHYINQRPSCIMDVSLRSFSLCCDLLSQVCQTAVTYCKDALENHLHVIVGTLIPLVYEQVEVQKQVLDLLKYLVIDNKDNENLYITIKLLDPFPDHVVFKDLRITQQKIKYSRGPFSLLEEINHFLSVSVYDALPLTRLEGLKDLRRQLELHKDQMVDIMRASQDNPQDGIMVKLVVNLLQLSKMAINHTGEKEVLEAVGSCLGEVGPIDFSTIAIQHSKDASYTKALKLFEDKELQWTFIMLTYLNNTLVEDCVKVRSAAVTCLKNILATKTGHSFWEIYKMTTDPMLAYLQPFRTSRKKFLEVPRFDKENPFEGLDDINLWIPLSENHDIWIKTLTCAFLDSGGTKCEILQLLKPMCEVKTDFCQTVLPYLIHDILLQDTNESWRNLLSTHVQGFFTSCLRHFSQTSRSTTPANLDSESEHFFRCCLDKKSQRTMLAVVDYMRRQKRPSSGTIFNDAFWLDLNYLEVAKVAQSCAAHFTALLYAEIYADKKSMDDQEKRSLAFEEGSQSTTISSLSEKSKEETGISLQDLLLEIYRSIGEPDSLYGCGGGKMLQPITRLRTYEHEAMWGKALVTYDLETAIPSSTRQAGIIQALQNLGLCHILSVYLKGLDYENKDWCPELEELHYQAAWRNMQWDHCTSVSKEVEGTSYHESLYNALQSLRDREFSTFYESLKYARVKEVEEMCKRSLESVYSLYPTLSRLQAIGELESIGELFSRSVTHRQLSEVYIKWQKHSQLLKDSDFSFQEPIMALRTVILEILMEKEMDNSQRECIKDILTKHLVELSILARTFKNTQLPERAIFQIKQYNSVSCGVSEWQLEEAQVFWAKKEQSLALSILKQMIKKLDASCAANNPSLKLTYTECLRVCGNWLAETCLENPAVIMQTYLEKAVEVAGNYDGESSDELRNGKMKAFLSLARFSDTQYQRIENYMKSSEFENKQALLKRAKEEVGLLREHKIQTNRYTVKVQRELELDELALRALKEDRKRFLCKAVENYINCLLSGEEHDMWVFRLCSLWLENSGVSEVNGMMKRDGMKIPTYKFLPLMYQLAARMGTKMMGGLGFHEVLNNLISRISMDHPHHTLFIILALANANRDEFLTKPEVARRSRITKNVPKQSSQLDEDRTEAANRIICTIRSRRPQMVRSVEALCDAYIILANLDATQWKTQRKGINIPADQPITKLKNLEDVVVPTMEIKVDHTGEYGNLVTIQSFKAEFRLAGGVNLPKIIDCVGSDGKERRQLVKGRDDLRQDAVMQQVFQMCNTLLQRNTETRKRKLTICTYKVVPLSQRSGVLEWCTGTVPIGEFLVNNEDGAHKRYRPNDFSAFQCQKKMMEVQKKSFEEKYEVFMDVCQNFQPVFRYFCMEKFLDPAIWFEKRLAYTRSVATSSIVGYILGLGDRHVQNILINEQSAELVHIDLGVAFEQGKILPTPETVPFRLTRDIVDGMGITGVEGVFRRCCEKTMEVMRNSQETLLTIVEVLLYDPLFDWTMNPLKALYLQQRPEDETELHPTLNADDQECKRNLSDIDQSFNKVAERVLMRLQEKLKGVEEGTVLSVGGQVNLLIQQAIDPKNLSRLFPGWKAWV

IC50 [µM] | Compound
0.1 to 0.5 | COc1cc(OC)nc(CN2CCC(Nc3ccc4c(c3)Cc3cccc(-c5cc(N6CCOCC6)cc(=O)[nH]5)c3O4)CC2)n1 [Example 2-28-20, 6-(7-((1-((4,6-Dimethoxypyrimidin-2-yl)methyl)piperidin-4-yl)amino)-9H-xanthen-4-yl)-4-morpholino pyridin-2(1H)-one]
0.1 to 0.5 | CNCCC(Nc1ccc2c(c1)Sc1cccc(-c3cc(N4CCOCC4)cc(=O)[nH]3)c1S2)c1cccc(C)n1 (centres unmarked) [Example 1-20-12, 6-(7-((3-(Methylamino)-1 (6-methyl pyridin-2-yl)propyl)amino)thianthren-1-yl)-4-morpholino pyridin-2 (1H)-one]
0.1 to 0.5 | Ethyl 6-(((6-(4-morpholino- 6-oxo-1,6-dihydropyridin-2- yl)thianthren-2-yl)amino) methyl)picol [Example 1-12-56]
0.5 to 2 | O=c1cc(N2CCOCC2)cc(-c2cccc3c2Sc2ccccc2S3)[nH]1 [Example 1-53, 4-morpholino-6-(thianthren-1-yl)pyridin-2(1H)-one]
0.1 to 0.5 | O=c1cc(N2CCOCC2)cc(-c2cccc3c2Oc2ccc(NCc4ccccc4)cc2C3)[nH]1 [Example 2-14-3, 6-(7-(Benzylamino)-9H-xanthen-4-yl)-4-morpholino pyridin-2(1H)-one]
0.1 to 0.5 | O=c1cc(N2CCOCC2)cc(-c2cccc3c2Sc2ccc(NCc4ncccn4)cc2C3)[nH]1 [Example 3-8-6, 4-Morpholino-6-(7-((pyrimidin-2-ylmethyl)amino)-9H-thioxanthen-4-yl) pyridin-2(1H)-one]
0.5 to 2 | Cc1nccc(CNc2ccc3c(c2)Cc2cccc(-c4cc(N5CCOCC5)cc(=O)[nH]4)c2O3)n1 [Example 2-14-68, 6-(7-(((2-Methylpyrimidin-4-yl)methyl)amino)-9H-xanthen-4-yl)-4-morpholino pyridin-2(1H)-one]
0.1 to 0.5 | CC(Nc1ccc2c(c1)Cc1cccc(-c3cc(N4CCOCC4)cc(=O)[nH]3)c1O2)c1cc(Cl)ccn1 (single isomer, unassigned) [Example 2-14-89-1, 6-(7-((1-(4-chloropyridin-2-yl)ethyl)amino)-9H-xanthen-4-yl)-4-morpholinopyridin-2(1H)-one]
0.1 to 0.5 | O=C(CN1CCOCC1)Nc1ccc2c(c1)Sc1cccc(-c3cc(N4CCOCC4)cc(=O)[nH]3)c1S2 [Example 1-7-4, 2-Morpholino-N-(6-(4-morpholino-6-oxo-1,6-dihydropyridin-2-yl)thianthren-2-yl)acetamide]
0.1 to 0.5 | Cc1cc(CNc2ccc3c(c2)Cc2ccnc(-c4cc(N5CCOCC5)cc(=O)[nH]4)c2O3)ccn1 [Example 2-42-3, 6-(7-(((2-Methylpyridin-4-yl)methyl)amino)-5H-chromeno[2,3-c]pyridin-1-yl)-4-morpholinopyridin-2(1H)-one]
0.5 to 2 | O=c1cc(N2CCOCC2)cc(-c2cccc3c2Sc2ccc(NCc4cccnn4)cc2C3)[nH]1 [Example 3-8-12]
0.5 to 2 | CN(C)CC(CN1CCOCC1)Nc1ccc2c(c1)Sc1cccc(-c3cc(N4CCOCC4)cc(=O)[nH]3)c1S2 (centres unmarked) [Example 9-3, 6-(7-((1-(Dimethylamino)-3-morpholinopropan-2-yl)amino)thianthren-1-yl)-4-morpholinopyridin-2(1H)-one]
0.1 to 0.5 | O=c1cc(N2CCOCC2)cc(-c2cccc3c2Sc2ccc(OCCN4CCOCC4)cc2S3)[nH]1 [Example 1-47, 4-Morpholino-6-(7-(2-morpholinoethoxy)thianthren-1-yl)pyridin-2(1H)-one]
0.1 to 0.5 | Cc1nccc(C(C)Nc2ccc3c(c2)Cc2cccc(-c4cc(N5CCOCC5)cc(=O)[nH]4)c2O3)n1 (centres unmarked) [Example 2-14-48, 6-(7-((1-(2-Methylpyrimidin-4-yl)ethyl)amino)-9H-xanthen-4-yl)-4-morpholino pyridin-2 (1H)-one]
0.1 to 0.5 | Cc1ccc(CNc2ccc3c(c2)Sc2cccc(-c4cc(N5CCOCC5)cc(=O)[nH]4)c2S3)s1 [Example 1-12-57, 6-(7-(((5-Methylthiophen-2-yl)methyl)amino)thianthren-1-yl)-4-morpholino pyridin-2 (1H)-one]
0.5 to 2 | CN1CCC(Nc2ccc3c(c2)Cc2cccc(-c4cc(N5CCOCC5)cc(=O)[nH]4)c2O3)CC1 [Example 2-3-7, 6-(7-((1-Methylpiperidin-4-yl)amino)-9H-xanthen-4-yl)-4-morpholino pyridin-2(1H)-one]
0.1 to 0.5 | Cc1cccc(C(CNC(=O)OC(C)(C)C)Nc2ccc3c(c2)Cc2cccc(-c4cc(N5CCOCC5)cc(=O)[nH]4)c2O3)n1 (centres unmarked) [Example 2-14-46]
0.1 to 0.5 | N#Cc1cccc(CNc2cccc3c2Cc2cccc(-c4cc(N5CCOCC5)cc(=O)[nH]4)c2O3)c1 [Example 2-56-4, 3-(((5-(4-Morpholino-6-oxo-1,6-dihydropyridin-2-yl)-9H-xanthen-1-yl)amino)methyl)benzonitrile]

IC50 [µM] | Compound
0.1 to 0.5 | CC(Nc1ccc2c(c1)Cc1cccc(-c3cc(N4CCOCC4)cc(=O)[nH]3)c1O2)c1cncc(F)c1 (centres unmarked) [Example 2-14-29, 6-(7-((1-(5-Fluoropyridin-3-yl)ethyl)amino)-9H-xanthan-4-yl)-4-morpholino pyridin-2(1H)-one]
0.1 to 0.5 | CN(C)CCN1CCC(Nc2ccc3c(c2)Sc2cccc(-c4cc(N5CCOCC5)cc(=O)[nH]4)c2S3)CC1 [Example 1-29-2, 6-(7-((1-(2-(Dimethylamino)ethyl)piperidin-4-yl)amino)thianthren-1-yl)-4-morpholinopyridin-2(1H)-one]
0.1 to 0.5 | N#Cc1ccc(CNc2ccc3c(c2)Cc2ccnc(-c4cc(N5CCOCC5)cc(=O)[nH]4)c2O3)s1 [Example 2-41-17, 5-(((1-(4-Morpholino-6-oxo-1,6-dihydropyridin-2-yl)-5H-chromeno[2,3-c]pyridin-7-yl)amino)methyl)thiophene-2-carbonitrile]
0.1 to 0.5 | CC(CN1CCC(F)(F)C1)Nc1ccc2c(c1)Sc1cccc(-c3cc(N4CCOCC4)cc(=O)[nH]3)c1S2 (centres unmarked) [Example 1-43-7, 6-(7-((1-(3,3-Difluoropyrrolidin-1-yl)propan-2-yl)amino)thianthren-1-yl)-4-morpholino pyridin-2(1H)-one]
0.1 to 0.5 | CN(C)[C@H](CNc1ccc2c(c1)Sc1cccc(-c3cc(N4CCOCC4)cc(=O)[nH]3)c1S2)Cc1ccccc1 [Example 1-2-2, (S)-6-(7-((2-(dimethylamino)-3-phenylpropyl)amino)thianthren-1-yl)-4-morpholinopyridin-2(1H)-one]
0.1 to 0.5 | O=c1cc(N2CCOCC2)cc(-c2cccc3c2Oc2ccc(NC4CCN(Cc5cccs5)CC4)cc2C3)[nH]1 [Example 2-28-25, 4-Morpholino-6-(7-((1-(thiophen-2-ylmethyl)piperidin-4-yl)amino)-9H-xanthen-4-yl)pyridin-2(1H)-one]
0.5 to 2 | CC(Nc1ccc2c(c1)Cc1cccc(-c3cc(N4CCOCC4)cc(=O)[nH]3)c1O2)C1CC1 (centres unmarked) [Example 2-14-70, 6-(7-((1-Cyclopropylethyl)amino)-9H-xanthen-4-yl)-4-morpholino pyridin-2(1H)-one]
0.1 to 0.5 | COc1ccnc(C(C)Nc2ccc3c(c2)Cc2ccnc(-c4cc(N5CCOCC5)cc(=O)[nH]4)c2O3)c1 (centres unmarked) [Example 2-41-14]
0.1 to 0.5 | CC(Nc1ccc2c(c1)Sc1cccc(-c3cc(N4CCOCC4)cc(=O)[nH]3)c1S2)c1nccc(CO)n1 (centres unmarked) [Example 1-12-86, 6-(7-((1-(4-(Hydroxymethyl)pyrimidin-2-yl)ethyl)amino)thianthren-1-yl)-4-morpholino pyridin-2(1H)-one]
< 0.1 | Cc1ccc(C(CCN(C)C)Nc2ccc3c(c2)Sc2cccc(-c4cc(N5CCOCC5)cc(=O)[nH]4)c2S3)nc1 (single isomer, unassigned) [Example 1-51-5, 6-(7-((3-(Dimethylamino)-1-(5-methylpyridin-2-yl)propyl)amino)thianthren-1-yl)-4-morpholino pyridin-2 (1H)-one]
< 0.1 | CN(C)c1cnc(CN(Cc2cnc(N(C)C)cn2)c2ccc3c(c2)Cc2cccc(-c4cc(N5CCOCC5)cc(=O)[nH]4)c2O3)cn1 [Example 2-2-76, 6-(7-(bis((5-(dimethylamino)pyrazin-2-yl)methyl)amino)-9H-xanthen-4-yl)-4-morpholinopyridin-2(1H)-one]
0.1 to 0.5 | COCc1ccc(CNc2ccc3c(c2)Cc2cccc(-c4cc(N5CCOCC5)cc(=O)[nH]4)c2O3)cn1 [Example 2-2-43, 6-(7-(((6-(Methoxymethyl)pyridin-3-yl)methyl)amino)-9H-xanthen-4-yl)-4-morpholino pyridin-2(1H)-one]
0.1 to 0.5 | Nc1ncccc1CNc1ccc2c(c1)Cc1cccc(-c3cc(N4CCOCC4)cc(=O)[nH]3)c1O2 [Example 2-2-21, 6-(7-(((2-Aminopyridin-3-yl)methyl)amino)-9H-xanthen-4-yl)-4-morpholino pyridin-2(1H)-one]
0.1 to 0.5 | COc1cc(CNc2ccc3c(c2)Sc2cccc(-c4cc(N5CCOCC5)cc(=O)[nH]4)c2S3)cnc1OC [Example 1-12-7, 6-(7-(((5,6-Dimethoxypyridin-3-yl)methyl)amino)thianthren-1-yl)-4-morpholino pyridin-2(1H)-one]
0.1 to 0.5 | CCOc1ccnc(CN2CCC(Nc3ccc4c(c3)Cc3cccc(-c5cc(N6CCOCC6)cc(=O)[nH]5)c3O4)CC2)c1 [Example 2-28-36, 6-(7-((1-((4-Ethoxypyridin-2-yl)methyl)piperidin-4-yl)amino)-9H-xanthen-4-yl)-4-morpholino pyridin-2(1H)-one]
0.1 to 0.5 | Cc1ccc(C(Nc2ccc3c(c2)Sc2cccc(-c4cc(N5CCOCC5)cc(=O)[nH]4)c2S3)C2CCCC2)nc1 (centres unmarked) [Example 1-12-125, 6-(7-((Cyclopentyl(5-methylpyridin-2-yl)methyl)amino)thianthren-1-yl)-4-morpholino pyridin-2(1H)-one]
0.1 to 0.5 | CC(Nc1ccc2c(c1)Cc1cccc(-c3cc(N4CCOCC4)cc(=O)[nH]3)c1O2)c1cccnc1 (racemic) [Example 2-11-1, 4-morpholino-6-(7-((1-(pyridin-3-yl)ethyl)amino)-9H-xanthen-4-yl)pyridin-2(1H)-one]
